Converted amounts (≈) assume the structure as drawn. Structures can show the parent of a compound that is named as a salt. Where two headings read alike, the source gives them in different places.
Legend:
[1] = In vivo toxicity, maximum tolerated dose; conditions: female, BALB/c, mouse, intraperitoneal
[2] = test system: Bacillus anthracis Sterne; test: microbe, parasite or virus in culture; type: cell-based; conditions: for MIC: Bacillus anthracis
B. anthracis NADs = B. anthracis NADs (Bacillus anthracis, UniProt Q81RP3); type: biochemical
Chain of B. anthracis NADs (Q81RP3 whole entry, looked up): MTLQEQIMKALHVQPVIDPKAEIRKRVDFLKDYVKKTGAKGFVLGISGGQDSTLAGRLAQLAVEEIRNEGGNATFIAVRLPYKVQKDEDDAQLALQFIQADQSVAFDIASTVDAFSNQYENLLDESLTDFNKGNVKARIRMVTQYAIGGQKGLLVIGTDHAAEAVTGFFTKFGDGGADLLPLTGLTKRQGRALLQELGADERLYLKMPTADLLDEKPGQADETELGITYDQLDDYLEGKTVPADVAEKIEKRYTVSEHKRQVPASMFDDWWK

hNaMNAT-1 = hNaMNAT-1 (Homo sapiens, UniProt Q9HAN9); test: Human NAMNAT inhibition in vitro; type: biochemical
Chain of hNaMNAT-1 (Q9HAN9 whole entry): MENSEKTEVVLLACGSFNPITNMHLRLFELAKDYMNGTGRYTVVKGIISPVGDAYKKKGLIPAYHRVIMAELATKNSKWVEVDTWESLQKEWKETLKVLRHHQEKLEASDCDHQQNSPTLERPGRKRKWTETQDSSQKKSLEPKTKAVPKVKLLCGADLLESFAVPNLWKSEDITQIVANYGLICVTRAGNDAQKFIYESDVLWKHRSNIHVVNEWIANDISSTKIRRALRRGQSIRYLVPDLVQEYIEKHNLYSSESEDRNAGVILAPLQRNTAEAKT

SUM159 = test: In vitro human breast cancer cell growth inhibition; type: cell-based; conditions: SUM159, read-out: In Vitro Human Breast Cancer Inhibition (IC50, μM) SUM159
HCC1937 = test: as above; type: cell-based; conditions: HCC1937, read-out: In Vitro Human Breast Cancer Inhibition (IC50, μM) HCC1937
MDA-MB-436 = test: as above; type: cell-based; conditions: MDA-MB-436, read-out: In Vitro Human Breast Cancer Inhibition (IC50, μM) MDA-MB-436

Compound	MIC ([2]; read-out: B.a. MIC (μM)) [µM]	IC50 (B. anthracis NADs; read-out: IC50) [µM]	IC50 (B. anthracis NADs; read-out: NADs IC50) [µM]	further results
COc1cccc(NC(=O)Nc2ccc(S(=O)(=O)Nc3ccc(Cl)c(Cl)c3)cc2)c1 [Compound 6325]	–	–	–	MTD [1]: 50 mg/kg
O=C(Nc1cccc(Oc2ccc3c(c2)C(=O)N(c2ccccc2)C3=O)c1)c1cccc([N+](=O)[O-])c1 [Compound 5799]	> 240	175	202 ± 38	–
O=[N+]([O-])c1ccc(O)c(/C=N/c2cccc(O)c2)c1 [Compound 5660]	> 387	22.5	22.5	–
Cc1cc(C)c2oc(-c3cccc(NC(=O)/C=C/c4cccc([N+](=O)[O-])c4)c3)nc2c1 [Compound 5806]	> 240	67.8	68 ± 5	–
O=C(Nc1cccc(/N=C/c2cc([N+](=O)[O-])ccc2O)c1)c1cccc(Br)c1 [Compound 5684]	> 227	99.5	99 ± 12	–
Cc1ccc(C(=O)Nc2cccc(-c3nc4ccccc4[nH]3)c2)cc1 [Compound 5710]	> 240	128	189 ± 86	–
O=C(Nc1cccc(/N=C/c2cc([N+](=O)[O-])ccc2O)c1)c1ccc(Cl)cc1Cl [Compound 5691]	> 232	106	106 ± 2	–
Nc1ncnc(Nc2ccc(Cl)cc2C(=O)c2ccccc2Cl)c1[N+](=O)[O-] [Compound 5616]	> 247	208	231 ± 36	–
Cc1onc(-c2ccccc2)c1NC(=O)Nc1ccc(Oc2ncnc3cc(Cl)ccc23)nc1 [Compound 5763]	> 240	232	232 ± 55	–
O=C1C=C(Nc2ccccc2C(=O)O)C(=O)C=C1Nc1ccccc1C(=O)O [Compound 5589]	> 264	137	118 ± 67	–
CCc1ccc(S(=O)(=O)Nc2c([N+](=O)[O-])ccc3ccccc23)cc1 [Compound 5599]	–	–	–	MIC ([2]; 5 h, read-out: MIC100 (μM)): 3.75 µM (≈ 1.34 µg/mL)
CCOc1ccc(NS(=O)(=O)c2ccc(NC(=O)CCC(=O)c3ccccc3)cc2)cc1 [Compound 6484]	–	–	–	MTD [1]: > 500 mg/kg
COc1ccc(Oc2ccc([N+](=O)[O-])cc2C(=O)Nc2ccc(S(N)(=O)=O)cc2)cc1 [Compound 5724]	> 240	291	291 ± 29	–
CCOC(=O)C1=C(Nc2cccc3ccccc23)S/C(=C\c2ccc([N+](=O)[O-])cc2)C1=O [Compound 5597]	> 224	86.1	86 ± 33	–
Cc1ccc(-c2nc3cc(Cl)ccc3o2)cc1CC(=O)c1cc([N+](=O)[O-])c(C)c([N+](=O)[O-])c1 [Compound 5588]	> 240	78.5	84 ± 35	MIC ([2]; 5 h, read-out: MIC100 (μM)): > 215 µM
N/C(=N\OC(=O)c1ccc(Cl)c(Cl)c1)c1cccc(CSc2ccccn2)c1 [Compound 5775]	> 240	290	290	–
COc1ccc(CCNC(=O)NCc2cccc(CNC(=O)NCCc3ccc(OC)cc3)c2)cc1 [Compound 5609]	> 204	70	70	–
Nc1c(C(=O)c2ccc([N+](=O)[O-])cc2)sc(Nc2ccccc2)c1-c1nc2ccccc2[nH]1 [Compound 5768]	> 240	170	170 ± 48	–
O=C(NC(=S)Nc1cc(-c2nc3ccccc3[nH]2)ccc1Cl)c1ccccc1[N+](=O)[O-] [Compound 5831]	> 240	243	243 ± 38	–
Cc1c(NC(=O)c2ccc(N3CCCC3)c([N+](=O)[O-])c2)cccc1-c1nc2ccccc2[nH]1 [Compound 5830]	> 240	198	193 ± 8	–
O=C(COC(=O)c1ccc(NC(=O)c2ccc([N+](=O)[O-])cc2)cc1)c1ccc(F)cc1 [Compound 5606]	> 237	141	176 ± 49	–
O=C(Nc1ccc2oc(-c3cc(Br)ccc3Cl)nc2c1)c1cccc([N+](=O)[O-])c1 [Compound 5798]	–	61.8	61.8	MIC ([2]; 5 h, read-out: MIC100 (μM)): > 240 µM

Compound	MIC ([2]; read-out: B.a. MIC (μM)) [µM]	IC50 (B. anthracis NADs; read-out: IC50) [µM]	IC50 (B. anthracis NADs; read-out: NADs IC50) [µM]	further results
O=C(Nc1ccc(Cc2ccc(NC(=O)c3ccc4c(c3)OCO4)cc2)cc1)c1ccc2c(c1)OCO2 [Compound 5818]	–	65.7	65.7	MIC ([2]; 5 h, read-out: MIC100 (μM)): > 240 µM
COc1cccc(NC(=O)Nc2nnc(COc3ccc([N+](=O)[O-])cc3)s2)c1 [Compound 5807]	> 240	124	124 ± 5	–
O=[N+]([O-])c1ccc(-c2cnc(N/N=C/c3cccc([N+](=O)[O-])c3)nc2)cc1 [Compound 5591]	> 274	160	160 ± 57	–
NC(=O)c1ccc(/N=C/c2cc([N+](=O)[O-])ccc2Cl)cc1 [Compound 5679]	> 329	262	262 ± 8	–
COc1ccc(NC(=O)Nc2ccc(Oc3ncnc4cc(Cl)ccc34)nc2)cc1OC1CCCC1 [Compound 5764]	> 240	97.2	97 ± 55	–
NC(=O)c1ccc(NC(=O)c2ccc(Oc3ccc([N+](=O)[O-])cc3Cl)cc2)cc1 [Compound 5821]	> 240	104	130 ± 37	–
O=C(CCC(=O)Nc1ccc(Nc2ccccc2)cc1)Nc1ccc(Nc2ccccc2)cc1 [Compound 5604]	> 222	141	256 ± 210	–
O=C(Nc1ccc(/N=N/c2ccccc2)cc1)c1ccc([N+](=O)[O-])cc1 [Compound 5792]	> 240	76	76 ± 13	–
COc1ccccc1NC(=O)COc1ccc(/C=C(/C#N)c2nc3ccccc3[nH]2)cc1 [Compound 5822]	> 240	107	178 ± 102	–
Cc1cc(-c2nnc(CSc3nnc(NC(=O)c4ccc(F)c(Cl)c4)s3)o2)ccc1[N+](=O)[O-] [Compound 5731]	> 240	271	270 ± 3	–
O=C(O)c1cn(C2CC2)c2cc(N3CCNCC3)c(F)cc2c1=O [Cipro, ciprofloxacin hydrochloride, reference compound]	0.5	–	–	–
O=C(Nc1ccc([N+](=O)[O-])cc1)c1ccc(-c2nnc(-c3ccccc3)o2)cc1 [Compound 5605]	> 259	146	146 ± 0.2	MIC ([2]; 5 h, read-out: MIC100 (μM)): > 259 µM
O=C(Nc1cccc(C(=O)Nc2cccc3ccccc23)c1)c1cccc([N+](=O)[O-])c1 [Compound 5802]	> 240	225	225 ± 36	–
O=C(Nc1ccc(S(=O)(=O)Nc2ccccc2C(F)(F)F)cc1)Nc1cccc([N+](=O)[O-])c1 [Compound 6572]	–	–	–	IC50 (hNaMNAT-1): > 600 µM; IC50 (SUM159): 10 µM; IC50 (HCC1937): 35 µM; IC50 (MDA-MB-436): 35 µM
O=C(Nc1ccc(S(=O)(=O)Nc2ncccn2)cc1)Nc1ccc(Cl)c(Cl)c1 [Compound 5617]	15 (≈ 6.57 µg/mL)	–	–	activity against B. anthracis (in words) [2]: good activities
COc1ccc(NC(=O)Nc2cccc(NC(=O)Nc3ccc(OC)cc3)c2F)cc1 [Compound 5707]	> 240	253	253 ± 65	–
O=C(Nc1ccc(S(=O)(=O)Nc2cccc(C(F)(F)F)c2)cc1)Nc1cccc(Cl)c1 [Compound 5991]	–	–	–	MTD [1]: 10 mg/kg
O=C(Cn1cc(/C=C/c2[nH]c(=O)[nH]c(=O)c2[N+](=O)[O-])c2ccccc21)Nc1ccc(F)cc1 [Compound 5615]	–	55.4	55.4	MIC ([2]; 5 h, read-out: MIC100 (μM)): > 223 µM
O=C(CSc1nc(Nc2ccccc2)nc(N2CCOCC2)n1)Nc1ccc([N+](=O)[O-])cc1O [Compound 5833]	15 (≈ 7.25 µg/mL)	–	–	activity against B. anthracis (in words) [2]: good activities
O=C(Nc1ccc(S(=O)(=O)Nc2ccc(Cl)c(Cl)c2)cc1)Nc1cccc([N+](=O)[O-])c1 [Compound 6333]	–	–	–	MTD [1]: 250 mg/kg
O=C(Nc1ccccc1)Nc1ccc(NC(=O)c2ccc(NC(=O)Nc3ccccc3)cc2)cc1 [Compound 5793]	> 240	78.8	79 ± 38	–
COc1ccccc1NC(=O)NC(=O)c1ccc(-c2csnn2)cc1 [Compound 5737]	> 240	235	235 ± 71	–

— patent US20110275635A1 (priority 2009, published 2011)
